We go through one compound from EPA's ToxValDB 9.5 (doi:10.2903/j.efsa.2017.4852).

One data set has as its system Chrysoperla externa. Kind of data set: LR50; higher = less toxic. Particulars: not reported; mortality.
For the next data set, the system named is Bibionidae. Particulars: chronic/long-term; duration: 28 days.
The subject of a further data set is Oryctolagus sp. Particulars: developmental; development.
The next data set deals with Anas platyrhynchos. Particulars: acute; oral; unspecified; mortality.
A further data set concerns Tagia sp. To be noted: chronic/long-term; reproduction.
In another data set the test system is Folsomia candida. Particulars: chronic/long-term; reproduction.
The next data set concerns Apis mellifera. Particulars: acute, mortality.
The test system of a further data set is Mus musculus. To be noted: acute; oral; mortality.

Bounds are passed on as bounds.

As a reminder, the LOAEL is the lowest dose or exposure tested at which an adverse effect was seen. For orientation: NOAEL means the highest dose or exposure tested at which no adverse effect was seen. Consider `CC#Cc1cc(C)nc(Nc2ccccc2)n1` [Mepanipyrim], for which the LR50 with Chrysoperla externa was over 500 g/ha. In addition, the LD50 in the data set on Rattus norvegicus (acute, oral, mortality) is over 2650 mg/kg-day; with Anas platyrhynchos, over 2250 mg/kg-day; in the data set on Colinus virginianus (acute, oral, mortality) it was over 2250 mg/kg-day; in the data set on Apis mellifera (dermal) it was over 80 µg/piece; with Apis mellifera (oral, unspecified), over 50 µg/piece; in the data set on Mus musculus, over 2650 mg/kg-day. Moreover, the LOAEL with Rattus norvegicus (chronic, morphology) came out at 2.45 mg/kg-day; in the data set on Rattus norvegicus (reproduction developmental, histopathology: nonneoplastic) it was 2.45 mg/kg-day. The NOEC in the data set with Bibionidae is 4.67 mg/kg; with Tagia sp., 113 mg/kg; in the data set on Folsomia candida it was 58.4 mg/kg; in the data set on Colinus virginianus (reproduction developmental, reproduction), 100 mg/kg-day. The NOAEL with Oryctolagus sp. amounted to 10 mg/kg-day.
